# Measured values taken from ChEMBL document CHEMBL1137572, “CYP2C9 structure-metabolism relationships: substrates, inhibitors, and metabolites” (J Med Chem, 2007).
# Target: Cytochrome P450 2C9 (Homo sapiens, UniProt P11712)
# Test: Inhibition of recombinant CYP2C9 by fluorescence inhibition assay
# Assay type: ADME
# Chain of Cytochrome P450 2C9 (P11712 whole entry): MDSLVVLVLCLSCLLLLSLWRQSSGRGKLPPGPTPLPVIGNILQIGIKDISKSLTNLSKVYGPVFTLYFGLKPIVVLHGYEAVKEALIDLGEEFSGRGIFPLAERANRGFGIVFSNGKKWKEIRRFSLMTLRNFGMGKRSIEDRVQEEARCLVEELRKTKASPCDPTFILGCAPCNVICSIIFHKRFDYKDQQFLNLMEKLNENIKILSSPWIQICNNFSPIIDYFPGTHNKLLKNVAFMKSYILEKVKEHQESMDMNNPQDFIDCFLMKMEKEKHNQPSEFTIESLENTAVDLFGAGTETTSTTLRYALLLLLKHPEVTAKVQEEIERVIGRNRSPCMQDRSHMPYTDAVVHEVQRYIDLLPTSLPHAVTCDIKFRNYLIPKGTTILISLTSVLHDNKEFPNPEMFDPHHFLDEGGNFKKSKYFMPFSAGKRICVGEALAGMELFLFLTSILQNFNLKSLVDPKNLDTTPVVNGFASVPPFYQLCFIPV
row,Compound,IC50
1,CCOC(=O)c1ccc(-n2nc(C(F)(F)F)cc2-c2ccc(C(F)(F)F)cc2)cc1,> 40 µM
2,O=C(O)c1ccc(-n2nc(C(F)(F)F)cc2-c2ccc(C(F)(F)F)cc2)cc1,> 40 µM
3,Cc1ccc(-c2cc(C(F)(F)F)nn2-c2ccc(C)cc2)cc1,> 40 µM
4,Cc1ccc(-c2cc(C(F)(F)F)nn2-c2ccc(CC(=O)O)cc2)cc1,> 40 µM
5,Cc1ccc(-c2cc(C(=O)O)nn2-c2ccc(S(N)(=O)=O)cc2)cc1,> 40 µM
6,Cc1ccc(-c2cc(C(F)(F)F)nn2-c2ccc(C(=O)O)cc2)cc1,> 40 µM
7,CCOC(=O)c1ccc(-n2nc(C(F)(F)F)cc2-c2ccc(C)cc2)cc1,> 40 µM

# Next, values leading:
row,IC50,Compound
1,> 40 µM,CSc1ccc(-n2nc(C(F)(F)F)cc2-c2ccc(C)cc2)cc1
2,16 µM,Cc1ccc(-c2cc(C(F)(F)F)nn2-c2ccc(S(C)(=O)=O)cc2)cc1
3,16 µM,Cc1ccc(-c2cc(-c3ccccc3)nn2-c2ccc(S(N)(=O)=O)cc2)cc1
4,17 µM,NS(=O)(=O)c1ccc(-n2nc(C(F)(F)F)cc2-c2ccc(C(F)(F)F)cc2)cc1
5,25 µM,O=C(O)Cc1ccc(-n2nc(C(F)(F)F)cc2-c2ccc(C(F)(F)F)cc2)cc1
6,26 µM,Cc1ccc(-c2cc(C(F)(F)F)nn2-c2ccc([S+](C)[O-])cc2)cc1 (centres undefined)
7,10 µM,Cc1ccc(-c2cc(C(F)(F)F)nn2-c2ccc(S(N)(=O)=O)cc2)cc1 [CELECOXIB]
